Structures can show the parent of a compound that is named as a salt. Where two headings read alike, the source gives them in different places.
Assays:
[1] = tested on: TNFα induced MMP-13 expression; experiment: TNFα induced MMP-13 expression in human chondrocyte cell line SW1353; details: for activity at 20 µg/mL / activity at 10 µg/mL / activity at 1 µg/mL / activity at 5 µg/mL: SW1353, 24 h; for activity at 20 µg/mL / activity at 10 µg/mL / TNFa Stimulated MMP-13 n = 1 / TNFa Stimulated MMP-13 average / activity at 1 µg/mL / activity at 5 µg/mL / TNFa Stimulated % Activity average (MMP-13 expression): TNF pos = 100%; for Dose dependence of inhibition of TNFα induced MMP-13 expression: Example 2, 20, 10, 5 and 1 ug/ml; for TNFa Stimulated % Activity average (MMP-13 expression): Table 6
Method: The SW1353 human chondrocyte cell line was used as described below.
Cells were grown and subcultured in 96-well plates at a density of 8×10^4 cells per well and allowed to reach ˜80% confluence overnight. Test compounds in medium were added to the cells at a final concentration of 0.1% DMSO. Following one hour of incubation with the test compounds, TNFα (10 ng/ml) or medium alone was added to the cell wells and incubation continued for 24 hours. The supernatant media was subsequently collected for MMP-13 determination.
Determination of MMP-13: A commercial, non-radioactive procedure for quantification of MMP-13 was used according to the manufacturer's instructions using MMP-13 as a standard. A minimum of 3 wells were used for each test condition.
The amount of MMP-13 release into the medium was determined by comparison of the MMP-13 generated in the presence or absence of TNFα and test compounds. A minimum of three wells were used for each test condition. The basal MMP-without 13 levels without TNFα stimulation was subtracted from TNF stimulation to determine the TNFα induced MMP-13 expression in the medium and the levels normalized to 100%. The percent activity of test compounds was measured in the presence of TNFα and referred as TNFα induced MMP-13 expression.

[2] = tested on: sRANKL mediated TRAP activity (osteoclastogenesis), RAW 264.7; experiment: sRANKL mediated osteoclastogenesis: TRAP activity in RAW 264.7 cells; details: for activity at 5 µg/mL / activity at 10 µg/mL: Mus musculus, RAW264.7, read-out: % TRAP Activity average; for % TRAP activity average (sRANKL induced TRAP activity): RAW 264.7 cells, sRANKL alone normalized to 100%; for % TRAP Activity average: Table 8, RAW 264.7, sRANKL 50 ng/ml, RANKL = 100%
Method: Following overnight incubation with the test compounds, sRANKL (50 ng/ml) or medium alone was added to the cell wells. The medium was replaced after 2 days with test compounds and sRANKL and incubation was continued for 3 additional days.
The cells were washed twice with ice cold PBS and lysed in 150 μl of 0.2% triton x-100 in PBS. TRAP activity in cell lysates was determined by using TRAP solution from the kit (Sigma 387A1 kit), according to the manufacturers instructions. A 100 μl cell lysates was added to 100 μl of TRAP solution in 96 well plate and incubated at 37° C. for 1 hr. The absorbance was measured at 555 nm using a plate reader. The protein concentration was estimated using BCA reagent (Sigma) and the final activity was normalized for equal protein.
Inhibition of TRAP activity was determined by comparison of the TRAP activity in the presence of with and with out test compounds in sRANKL, activated osteoclasts. A minimum of two wells were used for each concentration.
Inhibition of TRAP activity was determined by comparison in the presence of with and with out test compounds in sRANKL activated osteoclasts. A minimum of two wells were used for each concentration. The basal TRAP activity levels with out sRANKL stimulation was subtracted from sRANKL stimulation to get the sRANKL induced TRAP activity and the activity was normalized to 100%. The percent activity of test compounds was measured in the presence of sRANKL and referred as sRANKL induced TRAP activity.
A minimum of three concentrations were used to determine median inhibitory concentration (IC50).

[3] = tested on: TNFα induced MMP-13 expression; experiment: Synergy (Combinational Index) of THIAA and berberine on TNFα induced MMP-13 expression in SW1353; format: cell-based; details: Homo sapiens
Method: The SW1353 human chondrocyte cell line was used as described in Example 1.
The human chondrocyte cell line, SW1353 were maintained and treatments conditions were described in Example 1. […]; 1:10; 5:1; 2:1; 1:1; 1:2; 1:5; 1:10; […].
Determination of MMP-13 expression—The MMP-13 levels in the medium was measured as described in Example 1.
Median effect calculations were performed using CalcuSyn (Biosoft, Ferguson, Mo.). […] A minimum of three concentrations were used to determine the dose-response curve and a median inhibitory concentration (IC50).
Synergy—Combinational Index (CI) values were measured using CalcuSyn (Biosoft, Ferguson, Mo.). […]

[4] = Homo sapiens, read-out: TNFa Stimulated MMP-13 average, Table 4, 20 ug/mL, SW1353, TNFα 10 ng/ml 24 h
[5] = Table 4, 20 ug/mL, SW1353, TNFα 10 ng/ml 24 h
[6] = Homo sapiens, read-out: TNFa Stimulated MMP-13 average, Table 5, 1 ug/mL, SW1353
[7] = Homo sapiens, read-out: TNFa Stimulated MMP-13 average, Table 5, 5 ug/mL, SW1353
[8] = Homo sapiens, read-out: TNFa Stimulated MMP-13 average, Table 5, 10 ug/mL, SW1353
[9] = Homo sapiens, read-out: TNFa Stimulated MMP-13 average, Table 5, 20 ug/mL, SW1353

Compound | activity at 20 µg/mL [1, 4] [%] | activity at 5 µg/mL [2] [%] | activity at 10 µg/mL [2] [%] | % TRAP activity average (sRANKL induced TRAP activity) ([2]; 1 ug/mL test compound) [%] | % TRAP activity average (sRANKL induced TRAP activity) ([2]; 5 ug/mL test compound) [%] | % TRAP activity average (sRANKL induced TRAP activity) ([2]; 10 ug/mL test compound) [%] | TNFa Stimulated MMP-13 average [1, 5] [%] | other results
CC1(C)C=Cc2c(ccc3c2OC[C@@H](c2ccc(O)cc2O)C3)O1 [Glabridin] | 79 | 82 | 75 | – | – | – | – | –
Conjugated Linoleic acid | – | – | – | 86 | 81 | 79 | – | –
CC1(C)CC[C@]2(C(=O)O)CC[C@]3(C)C(=CC[C@@H]4[C@@]5(C)CC[C@H](O)C(C)(C)[C@@H]5CC[C@]43C)[C@@H]2C1 [Oleanolic Acid] | – | 61 | 35 | 139 | 63 | 32 | – | activity at 10 µg/mL ([1]; Homo sapiens, read-out: TNFa Stimulated MMP-13 average, Table 4, 10 ug/mL, SW1353, TNFα 10 ng/ml 24 h): 17%; TNFa Stimulated MMP-13 n = 1 ([1]; Table 5, 1 ug/mL, SW1353): 95%; TNFa Stimulated MMP-13 n = 1 ([1]; Table 5, 5 ug/mL, SW1353): 38%; TNFa Stimulated MMP-13 n = 1 ([1]; Table 5, 10 ug/mL, SW1353): 43%; TNFa Stimulated MMP-13 n = 1 ([1]; Table 5, 20 ug/mL, SW1353): 26%
C/C=C1/[C@H](O[C@@H]2O[C@H](CO)[C@@H](O)[C@H](O)[C@H]2O)OC=C(C(=O)OC)[C@H]1CC(=O)OCCc1ccc(O)c(O)c1 [Oleuropein] | -31 | 82 | 81 | – | – | – | – | –
C[C@@H]1O[C@@H](OC[C@H]2O[C@@H](Oc3c(-c4ccc(O)c(O)c4)oc4cc(O)cc(O)c4c3=O)[C@H](O)[C@@H](O)[C@@H]2O)[C@H](O)[C@H](O)[C@H]1O [Rutin] | -7 | 106 | 74 | – | – | – | – | –
O=C1O[C@H]([C@@H](O)CO)C(O)=C1O [Vitamin C] | 370 | – | – | – | – | – | – | –
O=c1c(O)c(-c2ccc(O)c(O)c2)oc2cc(O)cc(O)c12 [Quercetin] | -65 | 73 | 62 | – | – | – | – | –
COc1ccc([C@@H]2CC(=O)c3c(O)cc(O[C@@H]4O[C@H](CO[C@@H]5O[C@@H](C)[C@H](O)[C@@H](O)[C@H]5O)[C@@H](O)[C@H](O)[C@H]4O)cc3O2)cc1O [Hesperidin] | – | – | – | – | – | – | 13 | % TRAP Activity average ([2]; 5 ug/mL): 81%; % TRAP Activity average ([2]; 10 ug/mL): 76%
Inulin | – | – | – | – | – | – | 33 | % TRAP Activity average ([2]; 5 ug/mL): 87%; % TRAP Activity average ([2]; 10 ug/mL): 69%
Hyaluronic Acid | – | – | – | 122 | 130 | 111 | 105 | % TRAP Activity average ([2]; 5 ug/mL): 35%; % TRAP Activity average ([2]; 10 ug/mL): 2%
N[C@H]1C(O)O[C@H](CO)[C@@H](O)[C@@H]1O (stereo partly shown) [Glucosamine] | 77 | 75 | 48 | 179 | 183 | 269 | – | TNFa Stimulated MMP-13 n = 1 ([1]; Table 5, 1 ug/mL, SW1353): 126%; TNFa Stimulated MMP-13 n = 1 ([1]; Table 5, 5 ug/mL, SW1353): 137%; TNFa Stimulated MMP-13 n = 1 ([1]; Table 5, 10 ug/mL, SW1353): 107%; TNFa Stimulated MMP-13 n = 1 ([1]; Table 5, 20 ug/mL, SW1353): 105%
O=C([O-])CC(O)(CC(=O)[O-])C(=O)[O-].[K+].[K+].[K+] [Potassium Citrate] | – | – | – | – | – | – | 95 | –
C[C@]12CC[C@H](O)CC1=CC[C@@H]1[C@@H]2CC[C@]2(C)C(=O)CC[C@@H]12 [DHEA, reference compound] | – | – | – | – | – | – | −2 | Dose dependence of inhibition of TNFα induced MMP-13 expression ([1]; SW1353): dose dependently (20, 10, and 1 ug/ml) inhibited; TNFa Stimulated MMP-13 average ([1]; Table 5, 1 ug/mL, SW1353): 111%; TNFa Stimulated MMP-13 average ([1]; Table 5, 5 ug/mL, SW1353): 108%; TNFa Stimulated MMP-13 average ([1]; Table 5, 10 ug/mL, SW1353): 64%; TNFa Stimulated MMP-13 average ([1]; Table 5, 20 ug/mL, SW1353): 5%; % TRAP Activity average ([2]; 5 ug/mL): 46%; % TRAP Activity average ([2]; 10 ug/mL): 33%
CCCCC/C=C\C/C=C\CCCCCCCC(=O)O [Linoleic Acid] | 23 | – | – | – | – | – | – | –
CC(C)=CCC/C(C)=C/CC/C(C)=C/CC/C(C)=C/CC1=C(C)C(=O)c2ccccc2C1=O [Vitamin K2] | – | – | – | – | – | – | 56 | –
CC(C)Oc1ccc2c(=O)c(-c3ccccc3)coc2c1 [Ipriflavone, reference compound] | -42 | – | – | 168 | 164 | 82 | – | Dose dependence of inhibition of TNFα induced MMP-13 expression ([1]; SW1353): dose dependently (20, 10, and 1 ug/ml) inhibited; activity at 1 µg/mL [1, 6]: 86%; activity at 5 µg/mL [1, 7]: 20%; activity at 10 µg/mL [1, 8]: 0%; activity at 20 µg/mL [1, 9]: 3%
Oc1ccc(C=Cc2cc(O)cc(O)c2)cc1 [Resveratrol] | -42 | 11 | 2 | 117 | 17 | 16 | – | Dose dependence of inhibition of TNFα induced MMP-13 expression ([1]; SW1353): dose dependently (20, 10, and 1 ug/ml) inhibited; activity at 1 µg/mL [1, 6]: 96%; activity at 5 µg/mL [1, 7]: 88%; activity at 10 µg/mL [1, 8]: 53%; activity at 20 µg/mL [1, 9]: 45%
COc1ccc2cc3[n+](cc2c1OC)CCc1cc2c(cc1-3)OCO2 [Berberine sulfate] | – | – | – | – | – | – | – | Dose dependence of modulation of TNFα induced MMP-13 expression ([1]; Example 3, SW1353): dose dependently modulated; IC50 ([1]; Homo sapiens, SW1353, read-out: IC50 (TNFa induced MMP-13 expression)): 0.15 µg/mL; TNFa Stimulated % Activity average (MMP-13 expression) ([1]; 0.05 ug/mL, SW1353): 99%; TNFa Stimulated % Activity average (MMP-13 expression) ([1]; 0.1 ug/mL, SW1353): 50%; TNFa Stimulated % Activity average (MMP-13 expression) ([1]; 0.5 ug/mL, SW1353): 4%; TNFa Stimulated % Activity average (MMP-13 expression) ([1]; 1 ug/mL, SW1353): −1%; IC50 ([3]; Table 7B, single agents, read-out: Dm (median effect dose, TNFα induced MMP-13 expression)): 0.254 µg/mL; IC50 ([3]; text b137, single agents, read-out: IC50 (TNFα induced MMP-13 expression)): 0.254 µg/mL
O=c1c(-c2ccc(O)cc2)coc2cc(O)cc(O)c12 [Genistein] | 27 | 91 | 72 | – | – | – | – | –
O=C(CCc1ccc(O)cc1)c1c(O)cc(O)cc1O[C@@H]1O[C@H](CO)[C@@H](O)[C@H](O)[C@H]1O [Phloridzin] | 77 | 103 | 150 | – | – | – | – | –
COc1ccc2cc3[n+](cc2c1OC)CCc1cc2c(cc1-3)OCO2 [Berberine, 7,8,13,13a-tetrahydro-9,10-dimethoxy-2,3-(methylenedioxy)-berbinium] | -39 | 4 | -8 | 68 | 15 | 7 | – | TNFa Stimulated MMP-13 n = 1 ([1]; Table 5, 1 ug/mL, SW1353): −1%; TNFa Stimulated MMP-13 n = 1 ([1]; Table 5, 5 ug/mL, SW1353): −4%; TNFa Stimulated MMP-13 n = 1 ([1]; Table 5, 10 ug/mL, SW1353): −4%; TNFa Stimulated MMP-13 n = 1 ([1]; Table 5, 20 ug/mL, SW1353): −4%
CC/C=C\C/C=C\C/C=C\C/C=C\C/C=C\C/C=C\CCC(=O)O [DHA] | – | – | – | – | – | – | 265 | % TRAP Activity average ([2]; 5 ug/mL): 120%; % TRAP Activity average ([2]; 10 ug/mL): 105%

From patent US8815306B2, “Methods and compositions for promoting bone and joint health” (Metaproteomics, LLC, priority 2007, dated 2014)
